Data published in patent publication US20260098037A1, “COMPOUND CONTAINING MULTI-FUSED RING STRUCTURE” (Chia Tai Tianqing Pharmaceutical Group Co., Ltd., priority 2023, published 2026).
Like-named read-outs stand apart in the source and are kept apart here.

Columns and labels:
[1] = In vitro stability assay in liver microsome (MLM); format: in vitro ADME, mouse; conditions: liver microsome 0.5 mg/mL, NADPH+MgCl2, PBS pH 7.4, 1 h
Procedure: (§1) Liver microsome incubation samples were prepared by mixing a PBS buffer (pH 7.4), a liver microsome solution (0.5 mg/mL), a test compound, and an NADPH+MgCl2 solution, and incubated at […] and 300 rpm for 1 h. Zero-hour samples were prepared by mixing a PBS buffer (pH 7.4), a liver microsome solution (0.5 mg/mL), and a test compound. An acetonitrile solution containing an internal standard was added to the samples, and supernatants were prepared by protein precipitation, diluted, and then assayed by LC/MS/MS.

[2] = In vivo pharmacokinetic evaluation in mice; conditions: mouse, plasma, ICR mice; for bioavailability: ig 3 mg/kg vs iv 0.5 mg/kg, read-out: Absolute bioavailability F; for MRT last: read-out: MRT(0-24); for half-life: read-out: t½ (converted); for AUC(0-t): read-out: AUC(0-24)
Procedure: ICR mice of 18-22 g were randomized into 4 groups of 9 mice after 3-5 days of acclimatization. […]
The test animals (ICR mice) were fasted from 12 h pre-dose to 4 h post-dose, and given free access to water throughout the study.
Orbital blood samples of about 0.1 mL were collected at 15 min, 30 min, 1 h, 2 h, 3 h, 4 h, 6 h, 8 h, 10 h, and 24 h post-dose for the intragastric administration, and at 5 min, 10 min, 30 min, 1 h, 2 h, 4 h, 6 h, 8 h, 10 h, and 24 h post-dose for the intravenous administration. The blood sampling was performed at 3-4 time points for each mouse, 3 mice per time point. The collected whole blood was transferred into EDTA-K2-containing centrifuge tubes and stored at 4° C., and, within 1 h, centrifuged at 4° C. at 4000 rpm for 10 min to separate the plasma. All the plasma samples were immediately stored after collection at −20° C. for testing.
30 μL of the plasma sample to be tested and a standard curve sample were pipetted and added with 300 μL of an acetonitrile solution containing an internal standard (20 ng/mL of diazepam). The mixture was shaken to mix well for 5 min, and centrifuged at 13,000 rpm for 10 min. 80 μL of the supernatant was taken and diluted with 80 μL of ultrapure water. After a thorough mixing, 2 μL of the resulting sample was taken for liquid chromatography-mass spectrometry, and the chromatogram was recorded.

[3] = In vitro stability assay in liver microsome (HLM); format: in vitro ADME, human; conditions: liver microsome 0.5 mg/mL, NADPH+MgCl2, PBS pH 7.4, 1 h
Procedure: as §1

[4] = system: GLP-1R humanized C57BL/6J mice; experiment: Evaluation of hypoglycemic effect in mice (intraperitoneal glucose challenge); format: in vivo; conditions: intragastric dose 1 mg/kg, glucose 2 g/kg ip 5 h after administration
Description: GLP-1R humanized C57BL/6J mice of 20-22 g were used in this study after 3 days of acclimatization. All the animals were deprived of food but not water until the end of study. Blood samples were collected from the tail tip of the mice.
The test animals were deprived of food but not water overnight before the study. The next day, blood was collected from all the animals for blood glucose testing, and the animals were randomized into a normal control group, a positive control group, and test compound groups by blood glucose and body weight, with 6 animals in each group. The groups were then given intragastric doses, and 5 h after the administration, an intraperitoneal injection of glucose solution (2 g/kg) was given. The blood glucose concentration was measured at 0.25 h, 0.5 h, 1 h, 2 h, and 3 h after the glucose injection. The blood glucose was recorded throughout the study, and the area under the blood glucose-time curve AUC0-180 min Glu was calculated.

GLP1R = GLP1R (Homo sapiens, UniProt P43220); experiment: In vitro cellular cAMP expression activity assay (CRE-luciferase reporter); format: cell-based; conditions: HEK293/CRE-Luc/GLP1R cells, 6 h incubation, luciferase luminescence; read-out: HEK293/CRE-Luc/GLP-1R EC50
Chain of GLP1R (P43220 24-463): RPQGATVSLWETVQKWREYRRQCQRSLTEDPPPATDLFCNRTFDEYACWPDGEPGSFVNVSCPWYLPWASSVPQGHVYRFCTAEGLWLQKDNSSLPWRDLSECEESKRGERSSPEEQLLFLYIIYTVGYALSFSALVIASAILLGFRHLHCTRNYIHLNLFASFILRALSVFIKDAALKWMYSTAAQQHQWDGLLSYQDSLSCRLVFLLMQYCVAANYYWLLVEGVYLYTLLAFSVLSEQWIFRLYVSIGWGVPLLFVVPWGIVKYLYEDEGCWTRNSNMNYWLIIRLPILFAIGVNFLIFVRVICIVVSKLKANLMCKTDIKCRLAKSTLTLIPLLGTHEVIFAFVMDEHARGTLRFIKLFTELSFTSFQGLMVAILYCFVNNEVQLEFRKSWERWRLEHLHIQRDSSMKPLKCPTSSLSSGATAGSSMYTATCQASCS
Procedure: HEK293/CRE-Luc/GLP1R cells (manufacturer: GenScript Biotech Corporation) in a good growth state were taken, washed with PBS, and digested with pancreatin. The digestion was terminated with a complete medium. The cells were collected into a centrifuge tube, adjusted to a cell density of 4×10^5 cells/mL using a DMEM+2% FBS medium, seeded in a 96-well plate (100 μL/well), and incubated at 37° C. for 1 h. After 1 h, the compounds were added using a nanoliter pipettor such that the final concentrations of the compounds were 10 nM-0.0006 nM. The compounds were added in duplicate, and a control was set. After the cells were incubated in a cell incubator for another 6 h, a detection reagent Luciferase (manufacturer: Vazyme Biotech, 50 μL/well) was added. The plate was left to stand at room temperature for 3 min to fully lyse the cells, and the luminescence was detected on a PerkinElmer Envision microplate reader. A dose-response curve was fitted by four-parameter analysis, and the EC50 was calculated.

Cc1cc(-n2nc3c(c2-n2ccn(-c4ccc5c(c4)N(C)C(=O)C54CC4)c2=O)[C@H](C)N(C(=O)c2cc4cc(C5CCOC(C)(C)C5)ccc4n2[C@@]2(c4noc(=O)[nH]4)C[C@@H]2C)CC3)cc(C)c1F (single isomer, unassigned) [Compound 5]
MLM Remaining (T = 60 min) [1]: 94.32%
bioavailability ([2]; po): 35.2%
MRT last ([2]; po, ig, dose 3 mg/kg): 7.8 h
half-life ([2]; po, ig, dose 3 mg/kg): 4.27 h
MRT last ([2]; iv, dose 0.5 mg/kg): 5.16 h
half-life ([2]; iv, dose 0.5 mg/kg): 4.6 h
AUC(0-inf) ([2]; po, ig, dose 3 mg/kg): 4780 ng·h/mL
AUC(0-t) ([2]; po, ig, dose 3 mg/kg): 4640 ng·h/mL
AUC(0-inf) ([2]; iv, dose 0.5 mg/kg): 2260 ng·h/mL
AUC(0-t) ([2]; iv, dose 0.5 mg/kg): 2220 ng·h/mL
HLM Remaining (T = 60 min) [3]: 98.60%
AUC0-180 min Glu reduction (%) [4]: 83%
EC50 (GLP1R): < 0.5 nM

Cc1cc(-n2nc3c(c2-n2ccn(-c4ccc5c(c4F)N(C)C(=O)C54CC4)c2=O)[C@H](C)N(C(=O)c2cc4cc([C@H]5CCOC(C)(C)C5)ccc4n2[C@@]2(c4noc(=O)[nH]4)C[C@@H]2C)CC3)cc(C)c1F [Compound 14]
MLM Remaining (T = 60 min) [1]: 90.40%
bioavailability ([2]; po): 37.8%
MRT last ([2]; po, ig, dose 3 mg/kg): 10.1 h
half-life ([2]; po, ig, dose 3 mg/kg): 5.54 h
MRT last ([2]; iv, dose 0.5 mg/kg): 6.78 h
half-life ([2]; iv, dose 0.5 mg/kg): 5.77 h
AUC(0-inf) ([2]; po, ig, dose 3 mg/kg): 4910 ng·h/mL
AUC(0-t) ([2]; po, ig, dose 3 mg/kg): 4560 ng·h/mL
AUC(0-inf) ([2]; iv, dose 0.5 mg/kg): 2170 ng·h/mL
AUC(0-t) ([2]; iv, dose 0.5 mg/kg): 2060 ng·h/mL
HLM Remaining (T = 60 min) [3]: 89.53%
AUC0-180 min Glu reduction (%) [4]: 79%
EC50 (GLP1R): < 0.5 nM

Cc1cc(-c2nn3c(c2-n2ccn(-c4ccc5c(c4)N(C)C(=O)C54CC4)c2=O)[C@H](C)N(C(=O)c2cc4cc([C@H]5CCOC(C)(C)C5)ccc4n2[C@@]2(c4noc(=O)[nH]4)C[C@@H]2C)CC3)cc(C)c1F [Compound 27-D]
MLM Remaining (T = 60 min) [1]: 87.54%
HLM Remaining (T = 60 min) [3]: 86.20%
AUC0-180 min Glu reduction (%) [4]: 75%
EC50 (GLP1R): < 0.5 nM
